This note sets out measurements from paper PMC6514978, “Synthesis, Antibacterial Activities, Mode of Action and Acute Toxicity Studies of New Oxazolidinone-Fluoroquinolone Hybrids” (Molecules, 2019).

The test system of assay [1] is S. aureus (46) clinical isolates. Nature of the assay: Susceptibility of clinical isolates (MIC). The format is cell-based, Staphylococcus aureus. As for the experimental part:
(§1) Susceptibility testing of oxazolidinone-fluoroquinolone hybrids against various bacteria was performed by the broth microdilution method as outlined by the Clinical and Laboratory Standards Institute (CLSI). Three types of media, including cation-adjusted Mueller Hinton broth, Haemophilus Test Medium and cation-adjusted Mueller Hinton broth that contained 3%–5% lysed horse blood, were used to culture the corresponding bacteria. […] A final inoculum of 5 × 10^5 CFU/mL was used and plates were read after incubation for 16–24 h at 35 °C. […] Standard quality control strains (ATCC) were included throughout. Each determination was repeated in triplicate.

Assay [2] relates to S. haemolyticus (32) clinical isolates. Nature of the assay: Susceptibility of clinical isolates (MIC). The format is cell-based, Staphylococcus haemolyticus. As for the experimental part: as §1
Assay [3] deals with S. epidermidis (10) clinical isolates. Nature of the assay: Susceptibility of clinical isolates (MIC). The format is cell-based, Staphylococcus epidermidis. As for the experimental part:
as §1

Assay [4] deals with S. suis (9) clinical isolates. Nature of the assay: Susceptibility of clinical isolates (MIC). The format is cell-based, Streptococcus suis. The conditions noted are these: Streptococcus suis. As for the experimental part: as §1
Assay [5] relates to S. pneumoniae (13) clinical isolates. Nature of the assay: Susceptibility of clinical isolates (MIC). The format is cell-based, Streptococcus pneumoniae. The procedure:
as §1

For assay [6], the system named is E. faecium (47) clinical isolates. Briefly: Susceptibility of clinical isolates (MIC). The format is cell-based, Enterococcus faecium. As for the experimental part:
as §1

Assay [7] has as its system H. parasuis (34) clinical isolates. Briefly: Susceptibility of clinical isolates (MIC). The format is cell-based, Haemophilus parasuis. Conditions: Glaesserella parasuis. As for the experimental part: as §1
For the next assay, the system named is MRSE. Briefly: MIC against drug-resistant strain. The format is cell-based, S. epidermidis. Conditions: Staphylococcus epidermidis. The procedure:
(§2) 6 standard strains and 3 clinical isolates were used to the preliminary evaluation of in vitro antibacterial activities of oxazolidinone-fluoroquinolone hybrids.
as §1

In assay [8] the test system is LZD-resistant E. faecalis. Briefly: microbe, parasite or virus in culture. The format is cell-based. The conditions noted are these: Enterococcus faecalis. The procedure:
as §2, §1

The subject of another assay is CIP-resistant S. aureus. Nature of the assay: MIC against drug-resistant strain. The format is cell-based. The conditions noted are these: Staphylococcus aureus. As for the experimental part:
as §2, §1

Assay [9] relates to CIP-resistant S. haemolyticus. Nature of the assay: MIC against drug-resistant strain. The format is cell-based. Conditions: Staphylococcus haemolyticus. As for the experimental part:
as §2, §1

Assay [10] concerns LZD and quinolone-resistant E. faecium. Nature of the assay: MIC against drug-resistant strain. Conditions: Enterococcus faecium. The format is cell-based. As for the experimental part:
as §2, §1

In a further assay the test system is MRSA. Nature of the assay: MIC against drug-resistant strain. The format is cell-based. The conditions noted are these: Staphylococcus aureus. As for the experimental part:
as §2, §1

Assay [11] concerns VAN and quinolone-resistant E. faecium. Briefly: MIC against drug-resistant strain. The conditions noted are these: Enterococcus faecium. The format is cell-based. The procedure:
as §2, §1

For assay [12], the system named is VAN and quinolone-resistant S. pneumoniae. Nature of the assay: MIC against drug-resistant strain. The format is cell-based. Conditions: Streptococcus pneumoniae. As for the experimental part: as §2, §1
The subject of the next assay is MRSA (13B262). Nature of the assay: MIC, broth microdilution (CLSI), clinical isolate. The format is cell-based. Conditions: Staphylococcus aureus. The text has this: (§3) 6 standard strains and 3 clinical isolates were used to the preliminary evaluation of in vitro antibacterial activities of oxazolidinone-fluoroquinolone hybrids. For the further evaluation of hybrids OBP-4 and OBP-5, 263 clinical isolates including S. aureus (46), S. haemolyticus(32), S. epidermidis (10), E. faecalis (72), E. faecium (47), S. pneumoniae (13), H. parasuis (34), S. suis (9), and 8 resistant strains including MRSA, MRSE, CIP-resistant S. aureus and S. haemolyticus, VAN and quinolone-resistant S. pneumoniae, LZD-resistant E. faecalis, LZD/VAN and quinolone-resistant E. faecium were collected and tested.
(§4) Susceptibility testing of oxazolidinone-fluoroquinolone hybrids against various bacteria was performed by the broth microdilution method as outlined by the Clinical and Laboratory Standards Institute (CLSI). Three types of media, including cation-adjusted Mueller Hinton broth, Haemophilus Test Medium and cation-adjusted Mueller Hinton broth that contained 3%–5% lysed horse blood, were used to culture the corresponding bacteria. All compounds including comparator drugs were dissolved in an appropriate solvent at a concentration of 2.048 mg/mL and then serially diluted two-fold to provide the required concentrations. A final inoculum of 5 × 10^5 CFU/mL was used and plates were read after incubation for 16–24 h at 35 °C. […] Standard quality control strains (ATCC) were included throughout. Each determination was repeated in triplicate.
In general terms: Broth dilution looks for growth in wells or tubes with falling amounts of substance.

The subject of assay [13] is S. agalactiae^R (13B317), levofloxacin-resistant S. agalactiae. Briefly: MIC, broth microdilution (CLSI), clinical isolate. The format is cell-based. The conditions noted are these: Streptococcus agalactiae; levofloxacin-resistant S. agalactiae (13B317).
Excerpt: as §3, §4

The subject of another assay is VRE (13B330). Nature of the assay: MIC, broth microdilution (CLSI), clinical isolate. The conditions noted are these: Enterococcus. The format is cell-based, vancomycin-resistant enterococcus.
Excerpt: as §3, §4

Another assay concerns E. coli (ATCC25922). Nature of the assay: MIC, broth microdilution (CLSI), standard strain. The format is cell-based. The conditions noted are these: Escherichia coli; E. coli (ATCC25922); read-out: MIC.
Excerpt: as §3, §4

In a further assay the test system is E. faecalis (ATCC29212). Nature of the assay: MIC, broth microdilution (CLSI), standard strain. The format is cell-based. The conditions noted are these: Enterococcus faecalis; E. faecalis (ATCC29212); read-out: MIC.
Excerpt: as §3, §4

In assay [14] the test system is H. influenzae (ATCC49247). Nature of the assay: MIC, broth microdilution (CLSI), standard strain. Conditions: Haemophilus influenzae. The format is cell-based.
Excerpt: as §3, §4

In assay [15] the test system is P. Aeruginosa (ATCC27853). Nature of the assay: MIC, broth microdilution (CLSI), standard strain. The format is cell-based. Conditions: Pseudomonas aeruginosa; P. Aeruginosa (ATCC27853); read-out: MIC.
Excerpt: as §3, §4

A further assay relates to S. aureus (ATCC29213). Briefly: MIC, broth microdilution (CLSI), standard strain. The format is cell-based. The conditions noted are these: Staphylococcus aureus.
Excerpt: as §3, §4

The test system of assay [16] is S. pneumoniae (ATCC49619). Nature of the assay: MIC, broth microdilution (CLSI), standard strain. The format is cell-based. The conditions noted are these: Streptococcus pneumoniae.
Excerpt: as §3, §4

Values after ≈ are worked out from the molar mass of the structure shown.

Broadly, the MIC50 is an inhibitory concentration at the 50% level, which refers to growth in some studies and to a panel of isolates in others. High values mean lower susceptibility, low ones higher susceptibility. A word on the MIC90: it is an inhibitory concentration at the 90% level, which refers to growth in some studies and to a panel of isolates in others. A lower MIC90 goes with greater potency. For the compound `CN[C@H](CC(C)C)C(=O)N[C@H]1C(=O)N[C@@H](CC(N)=O)C(=O)N[C@H]2C(=O)N[C@H]3C(=O)N[C@H](C(=O)N[C@H](C(=O)O)c4cc(O)cc(O)c4-c4cc3ccc4O)[C@H](O)c3ccc(c(Cl)c3)Oc3cc2cc(c3O[C@@H]2O[C@H](CO)[C@@H](O)[C@H](O)[C@H]2O[C@H]2C[C@](C)(N)[C@H](O)[C@H](C)O2)Oc2ccc(cc2Cl)[C@H]1O` [VAN, vancomycin], the “CLSI %S (susceptible)” value in [1] (S. aureus clinical isolates, CLSI criteria) is recorded as 100.0/- %; in assay [2] (S. haemolyticus clinical isolates, CLSI criteria) it was 96.2/- %; in assay [3] (S. epidermidis clinical isolates, CLSI criteria), 100.0/- %; in assay [5] (S. pneumoniae clinical isolates, CLSI criteria), 53.8/- %; in assay [6] (E. faecium clinical isolates, CLSI criteria), 100.0/- %. Moreover, the MIC50 in [1] (Staphylococcus aureus) was determined as 0.5 µg/mL (≈ 0.345 µM); in assay [2] (Staphylococcus haemolyticus), 0.5 µg/mL (≈ 0.345 µM); in assay [3] (Staphylococcus epidermidis), 1 µg/mL (≈ 0.69 µM); in [4] it was 0.25 µg/mL (≈ 0.173 µM); in [5] (Streptococcus pneumoniae), 1 µg/mL (≈ 0.69 µM); in assay [6] (Enterococcus faecium), 2 µg/mL (≈ 1.38 µM). Also, the MIC50 in assay [7] was 8 µg/mL (≈ 5.52 µM). For the same compound, the MIC90 came out at 0.5 µg/mL (≈ 0.345 µM) in [1] (Staphylococcus aureus); 2 µg/mL (≈ 1.38 µM) in assay [2] (Staphylococcus haemolyticus); 2 µg/mL (≈ 1.38 µM) in [3] (Staphylococcus epidermidis); 2 µg/mL (≈ 1.38 µM) in [4]; 32 µg/mL (≈ 22.1 µM) in assay [5] (Streptococcus pneumoniae); 4 µg/mL (≈ 2.76 µM) in assay [6] (Enterococcus faecium). In assay [7], the MIC90 is greater than 32 µg/mL. Moreover, the MIC in assay [1] (Staphylococcus aureus, read-out: MIC Range) is 0.25 to 0.5 µg/mL (≈ 0.173 to 0.345 µM); in [2] (Staphylococcus haemolyticus, read-out: MIC Range), 0.0625 to 4 µg/mL (≈ 0.0431 to 2.76 µM); in assay [3] (Staphylococcus epidermidis, read-out: MIC Range) it was 1 to 2 µg/mL (≈ 0.69 to 1.38 µM); in assay [4] (read-out: MIC Range), 0.125 to 2 µg/mL (≈ 0.0863 to 1.38 µM); against MRSE, 1 µg/mL (≈ 0.69 µM); in assay [8] it was 2 µg/mL (≈ 1.38 µM). Moreover, the MIC is 0.25 µg/mL (≈ 0.173 µM) with CIP-resistant S. aureus; 2 µg/mL (≈ 1.38 µM) in assay [9]; 4 µg/mL (≈ 2.76 µM) in assay [10]; 1 µg/mL (≈ 0.69 µM) with MRSA; 16 µg/mL (≈ 11 µM) in assay [11]; greater than 32 µg/mL in [12]. For the same compound, the “MIC Range” value in [6] (E. faecium, 47 clinical isolates) lay in the range of 0.5 to 4 µg/mL.
In the case of `CN1COc2c(N3CCC(O)(COc4ccc(N5C[C@H](CO)OC5=O)cc4F)CC3)c(F)cc3c(=O)c(C(=O)O)cn1c23` [OBP-1], the MIC is 2 µg/mL (≈ 3.32 µM) with MRSA (13B262); 0.5 µg/mL (≈ 0.83 µM) in assay [13]; 1 µg/mL (≈ 1.66 µM) against VRE (13B330); 4 µg/mL (≈ 6.64 µM) in the assay on E. coli (ATCC25922); 1 µg/mL (≈ 1.66 µM) with E. faecalis (ATCC29212); 1 µg/mL (≈ 1.66 µM) in [14]. In addition, the MIC in assay [15] was 64 µg/mL (≈ 106 µM); in the assay with S. aureus (ATCC29213), 1 µg/mL (≈ 1.66 µM); in [16] it was 0.25 µg/mL (≈ 0.415 µM).
Regarding `C[C@H]1COc2c(N3CCC(O)(COc4ccc(N5C[C@H](CO)OC5=O)cc4F)CC3)c(F)cc3c(=O)c(C(=O)O)cn1c23` [OBP-2], the MIC with MRSA (13B262) is 1 µg/mL (≈ 1.66 µM); in [13], 0.25 µg/mL (≈ 0.416 µM); against VRE (13B330) it was 1 µg/mL (≈ 1.66 µM); in the assay with E. coli (ATCC25922) it was 4 µg/mL (≈ 6.65 µM); in the assay on E. faecalis (ATCC29212) it was 1 µg/mL (≈ 1.66 µM); in assay [14], 0.5 µg/mL (≈ 0.831 µM). Also, the MIC in [15] came out at 64 µg/mL (≈ 106 µM); against S. aureus (ATCC29213), 0.25 µg/mL (≈ 0.416 µM); in assay [16], 0.25 µg/mL (≈ 0.416 µM).
As to `O=C(O)c1cn(C2CC2)c2cc(N3CCC(O)(COc4ccc(N5C[C@H](CO)OC5=O)cc4F)CC3)c(F)cc2c1=O` [CZD, cadazolid, reference compound], the MIC against MRSA (13B262) came out at 0.5 µg/mL (≈ 0.854 µM); in [13] it was 0.125 µg/mL (≈ 0.213 µM); against VRE (13B330), 0.25 µg/mL (≈ 0.427 µM); with E. coli (ATCC25922), 8 µg/mL (≈ 13.7 µM); in the assay on E. faecalis (ATCC29212) it was 0.5 µg/mL (≈ 0.854 µM); in assay [14] it was 1 µg/mL (≈ 1.71 µM). The MIC stood at 64 µg/mL (≈ 109 µM) in assay [15], 0.5 µg/mL (≈ 0.854 µM) against S. aureus (ATCC29213) and 0.062 µg/mL (≈ 0.106 µM) in assay [16].
